Results on 25 compounds are retold here after patent US9511073B2, “Aromatic amides and uses thereof” (TAXIS Pharmaceuticals, Inc., priority 2011, dated 2016).

Converted amounts (≈) assume the structure as drawn.

One test relates to Staphylococcus aureus (Isolate ID ATCC 29213). Briefly: Bacterial assay: MIC by broth microdilution or agar dilution (CLSI), S. aureus ATCC 29213. Particulars: S. aureus (ATCC29213). It counts as cell-based. In short, it runs like this:
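MICs by CLSI broth microdilution or agar dilution against S. aureus ATCC 29213 and its FtsZ-G196A mutant. Values reported as ranges: A ≤0.25 μg/mL, B >0.25–1.0, C >1.0–16, D >16 μg/mL.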
On the technique in general: In broth dilution the organism is exposed to a series of concentrations in liquid medium.
With `NC(=O)c1c(F)ccc(OC(CC(O)CO)c2nc(-c3ccc(C(F)(F)F)cc3)c(Br)o2)c1F` (stereo not shown) [Compound 148, 3-(1-(5-bromo-4-(4-(trifluoromethyl)phenyl)oxazol-2-yl)-3,4-dihydroxybutoxy)-2,6-difluorobenzamide], the “S. aureus MIC (μg/mL) Activity Range” value was “C (activity>1.0 μg/mL-16 μg/mL)”.
On to `NC(=O)c1c(F)ccc(OC(CCC(O)CO)c2nc(-c3ccc(C(F)(F)F)cc3)c(Br)o2)c1F` (single isomer, unassigned) [Compound 128, 3-((1-(5-bromo-4-(4-(trifluoromethyl)phenyl)oxazol-2-yl)-4,5-dihydroxypentyl)oxy)-2,6-difluorobenzamide (mixture of two diastereomeric pairs of enantiomers)], for which the “S. aureus MIC (μg/mL) Activity Range” value is on record as “B (activity>0.25 μg/mL-1.0 μg/mL)”.

The same test, now with this note: Staphylococcus aureus, ATCC29213, read-out: S. aureus MIC (μg/mL) Activity Range, S. aureus (ATCC29213).
With `C=CCC(Oc1ccc(F)c(C(N)=O)c1F)c1nc(-c2ccc(Cl)cc2)c(Br)o1` (stereo not shown) [Compound 104, 3-((1-(5-bromo-4-(4-chlorophenyl)oxazol-2-yl)but-3-en-1-yl)oxy)-2,6-difluorobenzamide], the MIC was 1 to 16 µg/mL (≈ 2.07 to 33.1 µM).
Regarding `Cn1cc(CNC(=O)OCC(Oc2ccc(F)c(C(N)=O)c2F)c2nc(-c3ccc(C(F)(F)F)cc3)c(Br)o2)cn1` (stereo not shown) [Compound 198, 2-(5-bromo-4-(4-(trifluoromethyl)phenyl)oxazol-2-yl)-2-(3-carbamoyl-2,4-difluorophenoxy)ethyl ((1-methyl-1H-pyrazol-4-yl)methyl)carbamate], the MIC fell in the range of 0.25 to 1 µg/mL (≈ 0.388 to 1.55 µM).
In the case of `CCOC(=O)C(Oc1ccc(F)c(C(N)=O)c1F)c1nc(-c2ccc(Cl)cc2)cs1` (stereo not shown) [Compound 11, ethyl 2-(3-carbamoyl-2,4-difluorophenoxy)-2-(4-(4-chlorophenyl)thiazol-2-yl)acetate], the MIC was less than 0.25 µg/mL.
Consider `Cc1nnc(CC(Oc2ccc(F)c(C(N)=O)c2F)c2nc(-c3ccc(C(F)(F)F)cc3)c(Br)o2)o1` (stereo not shown) [Compound 120, 3-(1-(5-bromo-4-(4-(trifluoromethyl)phenyl)oxazol-2-yl)-2-(5-methyl-1,3,4-oxadiazol-2-yl)ethoxy)-2,6-difluorobenzamide], for which the MIC is 1 to 16 µg/mL (≈ 1.74 to 27.9 µM).
In the case of `NC(=O)c1c(F)ccc(OC(COC(=O)N2CCNCC2)c2nc(-c3ccc(C(F)(F)F)cc3)c(Br)o2)c1F` (stereo not shown) [Compound 135, 2-(5-bromo-4-(4-(trifluoromethyl)phenyl)oxazol-2-yl)-2-(3-carbamoyl-2,4-difluorophenoxy)ethyl piperazine-1-carboxylate], the MIC was in the range of 1 to 16 µg/mL (≈ 1.61 to 25.8 µM).
On the same count and under the same terms, to `NC(=O)c1c(F)ccc(OC(CO)c2csc(-c3ccc(Cl)cc3)n2)c1F` (stereo not shown) [Compound 258, 3-(1-(2-(4-chlorophenyl)thiazol-4-yl)-2-hydroxyethoxy)-2,6-difluorobenzamide] belongs 1 to 16 µg/mL (≈ 2.43 to 38.9 µM).
On the same count and under the same terms, to `CNc1ccc(-c2coc(C(CO)Oc3ccc(F)c(C(N)=O)c3F)n2)cn1` (stereo not shown) [Compound 220, 2,6-difluoro-3-(2-hydroxy-1-(4-(6-(methylamino)pyridin-3-yl)oxazol-2-yl)ethoxy)benzamide] belongs greater than 16 µg/mL.
Still for that read-out and setting: to `NC(=O)c1c(F)ccc(OC(CC(=O)O)c2nc(-c3ccc(C(F)(F)F)cc3)c(Br)o2)c1F` (stereo not shown) [Compound 77, 3-(5-bromo-4-(4-(trifluoromethyl)phenyl)oxazol-2-yl)-3-(3-carbamoyl-2,4-difluorophenoxy)propanoic acid] belongs greater than 16 µg/mL.
Consider `NC(=O)c1c(F)ccc(OC(CO)c2nc(-c3ccc(OC(F)(F)F)cc3)c(Br)o2)c1F` (stereo not shown) [Compound 116, 3-(1-(5-bromo-4-(4-(trifluoromethoxy)phenyl)oxazol-2-yl)-2-hydroxyethoxy)-2,6-difluorobenzamide], for which the MIC is less than 0.25 µg/mL.
Still for that read-out and setting: to `NC(=O)c1c(F)ccc(OC(CNC(=O)c2cccnc2)c2nc(-c3ccc(C(F)(F)F)cc3)co2)c1F` (stereo not shown) [Compound 293, N-(2-(3-carbamoyl-2,4-difluorophenoxy)-2-(4-(4-(trifluoromethyl)phenyl)oxazol-2-yl)ethyl)nicotinamide] belongs greater than 16 µg/mL; to `CC(=O)NCC(Oc1ccc(F)c(C(N)=O)c1F)c1nc(-c2ccc(C(F)(F)F)cc2)co1` (stereo not shown) [Compound 282, 3-(2-acetamido-1-(4-(4-(trifluoromethyl)phenyl)oxazol-2-yl)ethoxy)-2,6-difluorobenzamide], greater than 16 µg/mL; to `CC(Oc1ccc(F)c(C(N)=O)c1F)c1nc(-c2ccc(Cl)cc2)ns1` (stereo not shown) [Compound 33, 3-(1-(3-(4-chlorophenyl)-1,2,4-thiadiazol-5-yl)ethoxy)-2,6-difluorobenzamide], less than 0.25 µg/mL.
Turning to `NC(=O)c1cccc(OC(CO)c2nc(-c3ccc(C(F)(F)F)cc3)c(Br)o2)c1F` (stereo not shown) [Compound 159, 3-(1-(5-bromo-4-(4-(trifluoromethyl)phenyl)oxazol-2-yl)-2-hydroxyethoxy)-2-fluorobenzamide], the MIC is less than 0.25 µg/mL.
On the same count and under the same terms, to `CCOC(=O)C(Oc1ccc(F)c(C(N)=O)c1F)c1nc(-c2ccc(Cl)cc2)co1` (stereo not shown) [Compound 6, ethyl 2-(3-carbamoyl-2,4-difluorophenoxy)-2-(4-(4-chlorophenyl)oxazol-2-yl)acetate] belongs 1 to 16 µg/mL (≈ 2.29 to 36.6 µM); to `COc1ccc(-c2coc([C@H](C)Oc3ccc(F)c(C(N)=O)c3F)n2)cc1` [Compound 268A, (S)-2,6-difluoro-3-(1-(4-(4-methoxyphenyl)oxazol-2-yl)ethoxy)benzamide], greater than 16 µg/mL.
`Cc1ccc(-c2csc(C(CO)Oc3ccc(F)c(C(N)=O)c3F)n2)cn1` (stereo not shown) [Compound 264, 2,6-difluoro-3-(2-hydroxy-1-(4-(6-methylpyridin-3-yl)thiazol-2-yl)ethoxy)benzamide]: the MIC was greater than 16 µg/mL.
The same measure, in the same setting: to `CCOc1ncc(-c2csc(C(C)Oc3ccc(F)c(C(N)=O)c3F)n2)s1` (stereo not shown) [Compound 14] belongs less than 0.25 µg/mL; to `NC(=O)c1c(F)ccc(OC(CO)c2nc(-c3ccc(Cl)c(F)c3)c(Br)o2)c1F` (stereo not shown) [Compound 225, 3-(1-(5-bromo-4-(4-chloro-3-fluorophenyl)oxazol-2-yl)-2-hydroxyethoxy)-2,6-difluorobenzamide], 0.25 to 1 µg/mL (≈ 0.508 to 2.03 µM).
Still for that read-out and setting: to `CC(=O)OCC(Oc1ccc(F)c(C(N)=O)c1F)c1nc(-c2ccc(-c3noc(C)n3)cc2)c(Br)o1` (stereo not shown) [Compound 82, 2-(5-bromo-4-(4-(5-methyl-1,2,4-oxadiazol-3-yl)phenyl)oxazol-2-yl)-2-(3-carbamoyl-2,4-difluorophenoxy)ethyl acetate] belongs 1 to 16 µg/mL.
Still for that read-out and setting: to `CC(Oc1ccc(F)c(C(N)=O)c1F)c1nc(-c2ccc(Cl)cc2)co1` (stereo not shown) [Compound 4] belongs 1 to 16 µg/mL (≈ 2.64 to 42.2 µM).
With `CN1CCN(C(=O)OCC(Oc2ccc(F)c(C(N)=O)c2F)c2nc(-c3ccc(C(F)(F)F)cc3)c(Br)o2)CC1` (stereo not shown) [Compound 178, 2-(5-bromo-4-(4-(trifluoromethyl)phenyl)oxazol-2-yl)-2-(3-carbamoyl-2,4-difluorophenoxy)ethyl 4-methylpiperazine-1-carboxylate], the MIC lay in the range of 0.25 to 1 µg/mL (≈ 0.395 to 1.58 µM).
On to `NC(=O)c1c(F)ccc(OC(CO)c2nc(-c3ccc(Cl)nc3)c(Br)o2)c1F` (stereo not shown) [Compound 241, 3-(1-(5-bromo-4-(6-chloropyridin-3-yl)oxazol-2-yl)-2-hydroxyethoxy)-2,6-difluorobenzamide], for which the MIC fell in the range of 1 to 16 µg/mL (≈ 2.11 to 33.7 µM).
Same read-out and setting: to `CNC(=O)C(Oc1ccc(F)c(C(N)=O)c1F)c1nc(-c2ccc(C(F)(F)F)cc2)c(Cl)o1` (stereo not shown) [Compound 51, 3-(1-(5-chloro-4-(4-(trifluoromethyl)phenyl)oxazol-2-yl)-2-(methylamino)-2-oxoethoxy)-2,6-difluorobenzamide] belongs 1 to 16 µg/mL (≈ 2.04 to 32.7 µM).
